The compounds below were run against T1, recombinant human NK3 receptor (Homo sapiens, UniProt P29371) (assay: [3H]SR142801 competition binding assay). Conditions: not given.
T1 construct: expressed in transfected cells; host or cells: HEK293 cells, transient expression; membranes
T1 sequence (P29371 1-465): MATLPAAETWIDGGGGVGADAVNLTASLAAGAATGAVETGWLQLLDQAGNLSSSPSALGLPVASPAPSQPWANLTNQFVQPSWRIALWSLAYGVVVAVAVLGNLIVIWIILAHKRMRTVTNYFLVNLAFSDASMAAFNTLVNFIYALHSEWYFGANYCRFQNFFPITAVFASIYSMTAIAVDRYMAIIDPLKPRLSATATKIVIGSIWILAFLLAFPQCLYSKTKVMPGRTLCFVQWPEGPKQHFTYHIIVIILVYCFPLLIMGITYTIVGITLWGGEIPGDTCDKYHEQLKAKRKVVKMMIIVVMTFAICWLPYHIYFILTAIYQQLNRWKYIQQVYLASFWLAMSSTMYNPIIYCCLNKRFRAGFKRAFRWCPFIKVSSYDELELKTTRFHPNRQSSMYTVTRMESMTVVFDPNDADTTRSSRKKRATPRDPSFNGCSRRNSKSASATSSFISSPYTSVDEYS

SMILES | Ki
CN(C(=O)O[C@H]1CC[C@@H](C)CC1)[C@@H]1CN(C(=O)C2CCN(c3ccc(C#N)cn3)CC2)C[C@H]1c1ccc(Cl)cc1 [Example 220, [(3S,4R)-4-(4-Chloro-phenyl)-1-(5′-cyano-3,4,5,6-tetrahydro-2H-[1,2′]bipyridinyl-4-carbonyl)-pyrrolidin-3-yl]-methyl-carbamic acid 4-methyl-cyclohexyl ester] | 42.8 nM
Cc1ccc(N2CCC(C(=O)N3C[C@@H](N(C)C(=O)O[C@H]4CC[C@H](C(F)(F)F)CC4)[C@H](c4ccc(Cl)c(Cl)c4)C3)CC2)nn1 [Example 160, {(3S,4R)-4-(3,4-Dichloro-phenyl)-1-[1-(6-methyl-pyridazin-3-yl)-piperidine-4-carbonyl]-pyrrolidin-3-yl}-methyl-carbamic acid 4-trifluoromethyl-cyclohexyl ester] | 0.5 nM
CN(C(=O)O[C@H]1CC[C@H](C)CC1)[C@H]1CN(C(=O)C2CCN(C(=O)C3(C)CC3)CC2)C[C@@H]1c1ccc(Cl)cc1 (racemic) [Example 57, rac-{(3R,4S)-4-(4-Chloro-phenyl)-1-[1-(1-methyl-cyclopropanecarbonyl)-piperidine-4-carbonyl]-pyrrolidin-3-yl}-methyl-carbamic acid 4-methyl-cyclohexyl ester] | 7.6 nM
CN(C(=O)O[C@@H]1C[C@H]2CC[C@@H]1C2)[C@H]1CN(C(=O)C2CCN(C(=O)C3(C)CC3)CC2)C[C@@H]1c1ccc(Cl)c(Cl)c1 (mixture of isomers) [Example 69, {(3R,4S)-4-(3,4-Dichloro-phenyl)-1-[1-(1-methyl-cyclopropanecarbonyl)-piperidine-4-carbonyl]-pyrrolidin-3-yl}-methyl-carbamic acid (1R,2R,4S)-bicyclo[2.2.1]hept-2-yl ester and {(3S,4R)-4-(3,4-Dichloro-phenyl)-1-[1-(1-methyl-cyclopropanecarbonyl)-piperidine-4-carbonyl]-pyrrolidin-3-yl}-methyl-carbamic acid (1R,2R,4S)-bicyclo[2.2.1]hept-2-yl ester] | 7.6 nM
CN(C(=O)Oc1ccc(F)cc1)[C@@H]1CN(C(=O)C2CCN(C(=O)C3CCOC(C)(C)C3)CC2)C[C@H]1c1ccc(Cl)c(Cl)c1 (stereo partly drawn) [Example 276, {(3S,4R)-4-(3,4-Dichloro-phenyl)-1-[1-(2,2-dimethyl-tetrahydro-pyran-4-carbonyl)-piperidine-4-carbonyl]-pyrrolidin-3-yl}-methyl-carbamic acid 4-fluoro-phenyl ester] | 1 nM
CN(C(=O)Oc1ccc(F)cc1)[C@@H]1CN(C(=O)C2CCN(C3CCS(=O)(=O)CC3)CC2)C[C@H]1c1ccc(Cl)cc1 [Example 109, {(3S,4R)-4-(4-Chloro-phenyl)-1-[1-(1,1-dioxo-hexahydro-1λ^6-thiopyran-4-yl)-piperidine-4-carbonyl]-pyrrolidin-3-yl}-methyl-carbamic acid 4-fluoro-phenyl ester] | 0.2 nM
CN(C(=O)Oc1ccc(F)cc1)[C@@H]1CN(C(=O)C2CCN(C3CC3)CC2)C[C@H]1c1ccc(Cl)cc1 [Example 150, [(3S,4R)-4-(4-Chloro-phenyl)-1-(1-cyclopropyl-piperidine-4-carbonyl)-pyrrolidin-3-yl]-methyl-carbamic acid 4-fluoro-phenyl ester] | 15.6 nM
CN(C(=O)Oc1ccc(F)cc1)[C@@H]1CN(C(=O)C2CCN(C(=O)C3CC(F)C3)CC2)C[C@H]1c1ccc(F)cc1 (stereo partly drawn) [Example 287, [(3S,4R)-1-[1-(3-Fluoro-cyclobutanecarbonyl)-piperidine-4-carbonyl]-4-(4-fluoro-phenyl)-pyrrolidin-3-yl]-methyl-carbamic acid 4-fluoro-phenyl ester] | 7.2 nM
CN(C(=O)Oc1ccc(F)cc1)[C@@H]1CN(C(=O)C2CCC(CO)CC2)C[C@H]1c1ccc(Cl)cc1 (stereo partly drawn) [Example 116, [(3S,4R)-4-(4-Chloro-phenyl)-1-(4-hydroxymethyl-cyclohexanecarbonyl)-pyrrolidin-3-yl]-methyl-carbamic acid 4-fluoro-phenyl ester] | 10 nM
CN(C(=O)Oc1ccccc1Cl)[C@@H]1CN(C(=O)C2CCN(c3ccc(C#N)cn3)CC2)C[C@H]1c1ccc(Cl)cc1 [Example 213, [(3S,4R)-4-(4-Chloro-phenyl)-1-(5′-cyano-3,4,5,6-tetrahydro-2H-[1,2′]bipyridinyl-4-carbonyl)-pyrrolidin-3-yl]-methyl-carbamic acid 2-chloro-phenyl ester] | 7.2 nM
Cc1ccc(OC(=O)N(C)[C@@H]2CN(C(=O)C3CCN(c4ccc(C#N)cn4)CC3)C[C@H]2c2ccc(Cl)cc2)cc1 [Example 202, [(3S,4R)-4-(4-Chloro-phenyl)-1-(5′-cyano-3,4,5,6-tetrahydro-2H-[1,2′]bipyridinyl-4-carbonyl)-pyrrolidin-3-yl]-methyl-carbamic acid p-tolyl ester] | 4.3 nM
CN(C(=O)Oc1ccc(F)cc1)[C@@H]1CN(C(=O)C2CCCOC2)C[C@H]1c1ccc(Cl)cc1 (stereo partly drawn) [Example 147, [(3S,4R)-4-(4-Chloro-phenyl)-1-(tetrahydro-pyran-3-carbonyl)-pyrrolidin-3-yl]-methyl-carbamic acid 4-fluoro-phenyl ester] | 73.7 nM
CN(C(=O)Oc1ccc(F)cc1)[C@@H]1CN(C(=O)C2CCN(C(=O)c3ccc(C(F)(F)F)cn3)CC2)C[C@H]1c1ccc(Cl)cc1 [Example 261, {(3S,4R)-4-(4-Chloro-phenyl)-1-[1-(5-trifluoromethyl-pyridine-2-carbonyl)-piperidine-4-carbonyl]-pyrrolidin-3-yl}-methyl-carbamic acid 4-fluoro-phenyl ester] | 18.9 nM
CN(C(=O)Oc1ccc(F)cc1F)[C@@H]1CN(C(=O)C2CCN(c3ccc(C#N)cn3)CC2)C[C@H]1c1ccc(Cl)cc1 [Example 208, [(3S,4R)-4-(4-Chloro-phenyl)-1-(5′-cyano-3,4,5,6-tetrahydro-2H-[1,2′]bipyridinyl-4-carbonyl)-pyrrolidin-3-yl]-methyl-carbamic acid 2,4-difluoro-phenyl ester] | 0.4 nM
CN(C(=O)Oc1ccc(F)cc1)[C@@H]1CN(C(=O)C2CCN(C(=O)C3(C)CC3)CC2)C[C@@H]1c1ccc(Cl)c(Cl)c1 (stereo in doubt) [Example 62, {(3S,4S)-4-(3,4-Dichloro-phenyl)-1-[1-(1-methyl-cyclopropanecarbonyl)-piperidine-4-carbonyl]-pyrrolidin-3-yl}-methyl-carbamic acid 4-fluoro-phenyl ester] | 31.4 nM
CN(C(=O)OCC1CCCC1)[C@H]1CN(C(=O)C2CCN(C(=O)C3(C)CC3)CC2)C[C@@H]1c1ccc(Cl)c(Cl)c1 (racemic) [Example 32, rac-{(3R,4S)-4-(3,4-Dichloro-phenyl)-1-[1-(1-methyl-cyclopropanecarbonyl)-piperidine-4-carbonyl]-pyrrolidin-3-yl}-methyl-carbamic acid cyclopentylmethyl ester] | 1.4 nM

Same assay, conditions: hNK-3 receptor affinity; membranes from HEK293 cells transiently expressing recombinant human NK3 receptor; [3H]SR142801; Cheng-Prussoff; read-out: Data Ki

Ki | SMILES
21.1 nM | CN(C(=O)OCCC(F)(F)F)[C@@H]1CN(C(=O)C2CCN(c3ccc(C#N)cn3)CC2)C[C@H]1c1ccc(Cl)cc1 [Example 144, [(3S,4R)-4-(4-Chloro-phenyl)-1-(5′-cyano-3,4,5,6-tetrahydro-2H-[1,2′]bipyridinyl-4-carbonyl)-pyrrolidin-3-yl]-methyl-carbamic acid 3,3,3-trifluoro-propyl ester]

Reference: patent publication US9226916B2, “Pyrrolidine derivatives” (HOFFMANN-LA ROCHE INC., priority 2009, dated 2016)
